# According to patent US6929810B2, “Preparation of essential oil compositions for portable liquid disinfection” (Council of Scientific and Industrial Research, priority 2001, dated 2005):
# Test system: E. coli
# Test: bore-well method (zone of inhibition)
# Assay type: cell-based
# Settings: standard antibiotics available in the market
row,Compound,"Zone of Inhibition, Antibiotic"
1,CC[C@H]1OC(=O)[C@H](C)[C@@H](O[C@H]2C[C@@](C)(OC)[C@@H](O)[C@H](C)O2)[C@H](C)[C@@H](O[C@@H]2O[C@H](C)C[C@H](N(C)C)[C@H]2O)[C@](C)(O)C[C@@H](C)C(=O)[C@H](C)[C@@H](O)[C@]1(C)O [Erythromycin],10 mm
2,CN(C)[C@@H]1C(O)=C(C(N)=O)C(=O)[C@@]2(O)C(O)=C3C(=O)c4c(O)cccc4[C@@](C)(O)[C@H]3C[C@@H]12 [Tetracycline],24 mm
3,O=C(N[C@H](CO)[C@H](O)c1ccc([N+](=O)[O-])cc1)C(Cl)Cl [Chloromphenilcol],35 mm
4,CC1(C)S[C@@H]2[C@H](NC(=O)[C@H](N)c3ccccc3)C(=O)N2[C@H]1C(=O)O [Ampicillin],14 mm
5,Gentamycin,24 mm
6,NC[C@H]1O[C@H](O[C@H]2[C@H](O)[C@@H](O[C@H]3O[C@H](CO)[C@@H](O)[C@H](N)[C@H]3O)[C@H](N)C[C@@H]2N)[C@H](O)[C@@H](O)[C@@H]1O [Kanamycin],30 mm
